Data published in patent US11452731B2, “Method of treating and preventing loss of cognition” (ENDORECHERCHE, INC., priority 2009, dated 2022).
Read-outs that look alike come from different tables or passages of the source.

Assays:
[1] = Uterine and vaginal weight in ovariectomized BALB/c mice treated orally for 9 days with or without estrone (Example 3); format: in vivo; details: for inhibition of estrone-stimulated uterine weight / inhibition of vaginal weight (estrone-stimulated): OVX mice + estrone, oral 9 days
Description: Female BALB/c mice (BALB/cAnNCrlBR) weighing 18-20 g were obtained from Charles-River, Inc. (St-Constant, Quebec, Canada) and housed 5 per cage in a temperature (23±1° C.)- and light (12 h light/day, lights on at 7:15)-controlled environment. The mice were fed rodent chow and tap water ad libitum. The animals were ovariectomized (OVX) under Isoflurane anesthesia via bilateral flank incisions and randomly assigned to groups of 10 animals. Ten mice were kept intact as controls.
In the second experiment (Table 6), TSE 424 was administered orally by gavage once daily at doses of 1, 3, 10 or 30 μg/animal for 9 days, starting 2 days after ovariectomy. In both experiments, to evaluate the antiestrogenic activity, treatment with estrone (E1, […], s.c. injection, twice daily) was started 5 days post-ovariectomy and was administered for a 6 day-period. Compounds were dissolved in ethanol (4% final concentration) and administered in 0.4% methylcellulose. Mice in the intact and OVX control groups received the vehicle alone (4% ETOH-0.4% methylcellulose) during the 9-day period. The animals were killed by exsanguination at the abdominal aorta on the 11th morning following ovariectomy. The uteri and vagina were rapidly dissected, weighed, and kept in 10% buffered formalin for further histologic examination.

[2] = system: MCF-7 human breast cancer cells; assay: Proliferation (DNA content) of human breast cancer MCF-7 cells (Example 7); format: cell-based; details: for IC50: Homo sapiens, read-out: Inhibition of 1 nM E2 stimulation of DNA by tested compounds IC50
From the text: MCF-7 human breast cancer cells were obtained from the American Type Culture Collection #HTB 22 at passage 147 and routinely grown in phenol red-free Dulbecco's Modified Eagle's-Ham's F12 medium, the supplements mentioned above and 5% FBS. The MCF-7 human breast adenocarcinoma cell line was derived from the pleural effusion of a patient. MCF-7 cells were used between passages 148 and 165 and subcultured weekly
Thereafter, medium was replaced with fresh medium containing the indicated concentrations of compounds diluted from 1000×stock solutions in 99% redistilled ethanol in the presence or absence of E2. Control cells received only the ethanolic vehicle (0.1% EtOH, v/v). Cells were incubated for the specified time intervals with medium changes at 2- or 3-day intervals. Cell number was determined by measurement of DNA content.
All results are expressed as means±SEM.

human Ishikawa cells = assay: Alkaline phosphatase activity in human endometrial adenocarcinoma Ishikawa cells (Example 6)
[3] = 26-week treatment of ovariectomized rats: lumbar spine BMD, total body fat, serum cholesterol, ALP (Example 4, experiment 2); format: in vivo, rat; details: OVX rats, 26 weeks
Description: Ten to twelve week-old female Sprague-Dawley rats (Crl:CD(SD)Br) (Charles River Laboratory, St-Constant, Canada) weighing approximately 220-270 g at start of treatment were used. […] The animals were housed individually and were allowed free access to tap water and a pelleted certified rodent feed (Lab Diet 5002, Ralston Purina, St-Louis, Mo.). Experiments were conducted in an animal facility approved by the Canadian Council on Animal Care (CCAC) and the Association for Assessment and Accreditation of Laboratory Animal Care (AAALAC) in accordance with the CCAC Guide for Care and Use of Experimental Animals. […] Treatments were initiated on day 2 of the study and were performed once daily during 26 weeks. In both experiments, animals not receiving a test article were treated with the appropriate vehicle alone during the same period. […] QDR 4500A, Hologic, Waltham, Mass.) and a Regional High Resolution Scan software. […] Samples were processed for serum preparation and frozen at -80° C. until assay. Serum cholesterol levels and alkaline phospatase activity (ALP) were determined using the Boehringer Mannheim Diagnostic Hitachi 911 Analyzer (Boehringer Mannheim Diagnostic Laboratory Systems).

[4] = 5-week treatment of ovariectomized rats with SERMs alone or with DHEA: BMD of lumbar spine, femur, tibia (Example 5); format: in vivo, rat; details: OVX rats, 5 weeks
Description: Ten to twelve week-old female Sprague-Dawley rats (Crl:CD(SD)Br) (Charles River Laboratory, St-Constant, Canada) weighing approximately 220-270 g at start of treatment were used. The animals were acclimatized to the environmental conditions (temperature: 22±3° C.; humidity: 50±20%; 12-h light-12-h dark cycles, lights on at 07:15 h) for at least 1 week before starting the experiments. The animals were housed individually and were allowed free access to tap water and a pelleted certified rodent feed (Lab Diet 5002, Ralston Purina, St-Louis, Mo.). Experiments were conducted in an animal facility approved by the Canadian Council on Animal Care (CCAC) and the Association for Assessment and Accreditation of Laboratory Animal Care (AAALAC) in accordance with the CCAC Guide for Care and Use of Experimental Animals.
On day 1 of the study, the animals of the appropriate groups were bilaterally ovariectomized (Ovx) under isoflurane anesthesia. The DHEA was applied topically on the dorsal skin as a solution in 50% ethanol-50% propylene glycol while the tested SERMs were administered as suspension in 0.4% methylcellulose by oral gavage. Treatments were initiated on day 2 of the study and were performed once daily during 5 weeks.
After 5 weeks of treatment, individual rats under Isoflurane anesthesia had their lumbar spine, femur and tibia scanned using dual energy x-ray absorptiometry (DEXA; QDR 4500A, Hologic, Waltham, Mass.) and a Regional High Resolution Scan software. The bone mineral density (BMD) of the lumbar spine (vertebrae L2 to L4), distal femoral metaphysis (DFM) and proximal tibial metaphysis (PTM) were determined.

[5] = OVX mice, absence of estrone, 10 μg daily (no-effect statements: 1 μg and 10 μg)
[6] = Premarin 0.25 mg/kg, SERMs 2.5 mg/kg

Oc1ccc2c(c1)CC[C@H](c1ccccc1)[C@@H]2c1ccc(OCCN2CCCC2)cc1 [Lasofoxifene (free base)]
inhibition of estrone-stimulated uterine weight ([1]; 1 μg daily): no inhibitory effect | inhibition of estrone-stimulated uterine weight ([1]; 3 μg daily): 25% | inhibition of estrone-stimulated uterine weight ([1]; 10 μg daily): 44% | inhibition of vaginal weight (estrone-stimulated) ([1]; 10 μg daily): 37% | stimulation of uterine weight (estrogenic effect) [1, 5]: 93% | stimulation of vaginal weight (estrogenic effect) [1, 5]: 73% | IC50 ([2]; MCF7, MCF-7, Experiment 2): 0.379 nM | Stimulation of DNA by tested compounds % of 1 nM E2 stimulation ([2]; MCF-7, Experiment 2): N.S. | IC50 (human Ishikawa cells; Homo sapiens, Ishikawa, 120 h, read-out: Inhibition of 1 nM E2-induced stimulation of alkaline phosphatase IC50): 4.24 nM | Emax (human Ishikawa cells; Homo sapiens, Ishikawa, 120 h, read-out: Maximal stimulation of alkaline phosphatase % of 1 nM E2 stimulation): 17.9% | Maximal inhibition of 1 nM E2-induced stimulation of alkaline phosphatase (human Ishikawa cells; Ishikawa cells, 5-day incubation, 1 nM E2): 85.14 (1)

Cc1c(-c2ccc(O)cc2)n(Cc2ccc(OCCN3CCCCCC3)cc2)c2ccc(O)cc12 [TSE 424, 1-[[4-[2-(hexahydro-1H-azepin-1-yl)ethoxy]phenyl]methyl]-2-(4-hydroxyphenyl)-3-methyl-1H-indol-5-ol, acetate]
UTERINE WEIGHT ([1]; OVX + E1, 1 μg): 105.5 ± 6.1 mg | VAGINAL WEIGHT ([1]; OVX + E1, 1 μg): 54.2 ± 3.0 mg | UTERINE WEIGHT ([1]; OVX + E1, 3 μg): 69.7 ± 4.4 mg | VAGINAL WEIGHT ([1]; OVX + E1, 3 μg): 47.2 ± 1.6 mg | UTERINE WEIGHT ([1]; OVX + E1, 10 μg): 42.1 ± 2.7 mg | VAGINAL WEIGHT ([1]; OVX + E1, 10 μg): 31.1 ± 2.3 mg | UTERINE WEIGHT ([1]; OVX + E1, 30 μg): 21.7 ± 1.7 mg | VAGINAL WEIGHT ([1]; OVX + E1, 30 μg): 16.7 ± 1.8 mg | inhibition of estrone-stimulated uterine weight ([1]; 1 μg daily): 12% | inhibition of estrone-stimulated uterine weight ([1]; 3 μg daily): 47% | inhibition of vaginal weight (estrone-stimulated) ([1]; 3 μg daily): 16% | inhibition of estrone-stimulated uterine weight ([1]; 10 μg daily): 74% | inhibition of vaginal weight (estrone-stimulated) ([1]; 10 μg daily): 56% | inhibition of estrone-stimulated uterine weight ([1]; 30 μg daily): 94% | inhibition of vaginal weight (estrone-stimulated) ([1]; 30 μg daily): 93% | UTERINE WEIGHT ([1]; OVX without E1, 3 μg): 18.3 ± 1.2 mg | VAGINAL WEIGHT ([1]; OVX without E1, 3 μg): 14.1 ± 1.2 mg | UTERINE WEIGHT ([1]; OVX without E1, 30 μg): 17.7 ± 1.6 mg | VAGINAL WEIGHT ([1]; OVX without E1, 30 μg): 15.3 ± 2.0 mg | ALP [3]: 85 ± 6 IU | CHOLESTEROL (serum) [3]: 1.15 ± 0.05 mmol/L | TOTAL FAT [3]: 28.0 ± 1.8 % | reversal of the fat increase induced by estrogen deficiency [3]: 75% | LUMBAR SPINE BMD [3, 6]: 0.2252 ± 0.0058 g/cm^2 | LUMBAR SPINE Prevention of Bone Loss [3, 6]: 49% | DISTAL FEMORAL METAPHYSIS (DFM) BMD [4]: 0.2929 ± 0.0042 g/cm^2 | DISTAL FEMORAL METAPHYSIS (DFM) Prevention of Bone Loss [4]: 70% | PROXIMAL TIBIAL METAPHYSIS (PFM) BMD [4]: 0.2750 ± 0.0039 g/cm^2 | PROXIMAL TIBIAL METAPHYSIS (PFM) Prevention of Bone Loss [4]: 71% | LUMBAR SPINE (L2-L4) BMD ([4]; SERMs 2.5 mg/kg, DHEA 80 mg/kg): 0.2162 ± 0.0035 g/cm^2 | LUMBAR SPINE (L2-L4) Prevention of Bone Loss ([4]; SERMs 2.5 mg/kg, DHEA 80 mg/kg): 53% | IC50 ([2]; MCF7, MCF-7, Experiment 1): 3.68 nM
